In experiment [1] the target is T1, RSV A2 F glycoprotein (membrane-anchored full-length F) in 293 cells (Human respiratory syncytial virus A, UniProt P03420).
T1 construct: A membrane-anchored full-length F was generated essentially according to the method described therein; expressed in transfected cells; host or cells: 293 cells
As to the kind of experiment: RSV fusion assay (syncytium formation assay). Format: cell-based. The method, then:
Method R: RSV Fusion Assay
Selected compounds of the invention were tested for their ability to inhibit the essential fusion processes of the respiratory syncytial virus.
Single-stranded synthetic DNA oligonucleotides encoding the portions of RSV A2 F glycoprotein incorporating optimal codons and without potential poly(A) addition or splice sites were generated synthetically (Mason et al, WO0242326). A membrane-anchored full-length F was generated essentially according to the method described therein and in Morton et al, Virology, 2003, 311, 275.
Fusion activity of the RSV-F constructs was measured in 293 cells essentially according to the method described in Morton et al, Virology, 2003, 311, 275. For example: cells in six well plates at approximately 80% confluency were transfected by adding plasmid DNA (2 μg/well) carrying the constructs of interest in CaPO4 solution for 4 hours. After glycerol shock and wash, the transfected cells were trypsinized and 1.5×10^4 cells/well added to 96-well plates containing half-log serial dilutions of the test compound. Syncytium formation was evaluated by visual inspection and quantified at 48 hours post-transfection by addition of 20 μL of CellTiter 96 One Solution (Promega) followed by incubation for 4 hours at 37° C. The colour reaction was then stopped by addition of 25 μL 10% SDS to each well and absorbance measured at 492 nm. The compound concentration that reduced absorbance relative to untreated control cultures by 50% (EC50) was calculated using an Excel curve fitting program.

The subject of experiment [2] is RSV A2. Kind of experiment: RSV Balb/c mouse model. Format: in vivo. The settings on record: female Balb/c mice, compound orally 6 hours preinfection, lung RSV titres by plaque assay three days after virus inoculation. The procedure:
Method T: RSV Balb/c Mouse Model
The mouse model was performed essentially as described by Clanci et al (Antimicrobial Agents and Chemotherapy. 2004, 48, 413). Briefly, eight week old female Balb/c mice were weighed, anesthetized intraperitoneally with Avertin™ and compound or vehicle administered orally 6 hours preinfection. Mice were inoculated intranasally with approximately 10000 TCID50 RSV A2 per animal. Three days after virus inoculation, each mouse was sacrificed and their lungs removed and RSV titres determined by plaque assay.

The test system of experiment [3] is RSV A2. As to the kind of experiment: RSV cotton rat model. It counts as in vivo. The settings on record: oral 100 mg/kg/day, lung RSV titres by plaque assay four days after inoculation. The method, then:
Method S: RSV Cotton Rat Model
The cotton rat model was performed essentially as described in the literature (Wyde et al, Antiviral Res. 2003, 60, 221). Briefly, cotton rats weighing 50-100 g were lightly anesthetized with isoflurane and dosed orally with 100 mg/kg/day of compound or vehicle control. Viral infection followed 2 hours post-treatment in similarly anesthetized rats by intranasal instillation with approximately 1000 TCID50 of RSV A2 per animal. Four days after virus inoculation, each cotton rat was sacrificed and their lungs removed and RSV titres determined by plaque assay.

The test system of experiment [4] is RSV A2. Kind of experiment: RSV antiviral cytopathic effect (CPE) assay, MTT readout. It counts as cell-based. The settings on record: human respiratory syncytial virus, HEp-2, 120 h. In short, it runs like this: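 HEp2 cells (1.0×10^4/well) were infected with RSV A2 at moi 0.01 and incubated with compound for about 5 days at 37°C. CPE was quantified by MTT (1 mg/ml final, 2 h), with absorbance read at 540 nm. EC50 was determined in infected wells and CC50 in uninfected wells.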
For orientation: Protection from cytopathic effect is a common read-out in antiviral testing.

Where [5] appears, read: RSV A2 in HEp2 cells, CPE assay, MTT, approx. 5 days, read-out: Activity Range (RSV A2 antiviral EC50), compounds of Table 3.
Setting [6] is: RSV A2 in HEp2 cells, CPE assay, MTT, approx. 5 days, read-out: Activity Range (RSV A2 antiviral EC50), compounds of Table 2.

pEC50: −log10 of the molar value. Values after ≈ are worked out from the molar mass of the structure shown. Where two headings read alike, the source gives them in different places. A value given as a limit tells only on which side of the number the result lay.

T1 sequence (P03420 26-109): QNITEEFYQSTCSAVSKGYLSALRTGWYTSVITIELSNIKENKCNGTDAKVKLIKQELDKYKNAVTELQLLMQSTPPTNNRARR
T1 sequence (P03420 137-574): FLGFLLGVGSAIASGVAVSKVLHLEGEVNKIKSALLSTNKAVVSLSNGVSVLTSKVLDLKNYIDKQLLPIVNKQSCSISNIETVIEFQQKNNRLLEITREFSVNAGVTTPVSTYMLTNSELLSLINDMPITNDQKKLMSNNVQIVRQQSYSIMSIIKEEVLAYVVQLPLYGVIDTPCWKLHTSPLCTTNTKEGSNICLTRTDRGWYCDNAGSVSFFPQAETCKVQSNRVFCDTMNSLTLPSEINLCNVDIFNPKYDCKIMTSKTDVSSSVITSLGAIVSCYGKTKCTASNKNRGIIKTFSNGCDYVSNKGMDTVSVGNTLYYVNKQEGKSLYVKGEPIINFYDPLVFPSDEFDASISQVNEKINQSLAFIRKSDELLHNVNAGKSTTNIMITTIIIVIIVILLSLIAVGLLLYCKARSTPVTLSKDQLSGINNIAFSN

By pEC50 is commonly meant the negative decadic logarithm of the EC50, by convention in mol/L. Read a low pEC50 as a high EC50. As to `CCC(=O)N1CCN2C(=O)c3ccccc3C12c1ccc(Cl)cc1` (stereo not shown) [Compound 16], the pEC50 in experiment [1] is 5.36 to 5.66.

Broadly, the EC50 is the concentration needed to bring the measured effect to its halfway point. Turning to `O=C(c1ccc(F)cc1)N1CCN2C(=O)c3ccncc3C12c1ccc(Cl)cc1` (stereo not shown) [Compound 336], the “% Reduction of virus Control” value in the experiment on RSV A2 [2] is given as 80%; with RSV A2 [3], 96%. In addition, the pEC50 in experiment [1] is greater than 5.74. The EC50 in the experiment with RSV A2 [4] (setting [5]) lay within 0.1 to 0.25 µg/mL (≈ 0.245 to 0.613 µM).

Consider `O=C(c1ccc(F)cc1)N1CCN2C(=O)c3ccccc3C12c1ccc(Cl)cc1` (stereo not shown) [Compound 12], for which the pEC50 in experiment [1] was 5.26 to 5.43. In addition, the EC50 in the experiment with RSV A2 [4] (read-out: Activity Range (RSV A2 antiviral EC50), compounds of Table 2) fell in the range of 0.1 to 0.25 µg/mL (≈ 0.246 to 0.614 µM).

In the case of `O=C(c1ccc(F)cc1)N1CCN2C(=O)c3cc[n+]([O-])cc3C12c1ccc(Cl)cc1` (stereo not shown) [Compound 352], the “% Reduction of virus Control” value in the experiment on RSV A2 [3] was found to be 68%. The EC50 in the experiment on RSV A2 [4] (setting [5]) fell in the range of 0.1 to 0.25 µg/mL (≈ 0.236 to 0.59 µM).

As to `O=C(c1ccc(F)nc1)N1CCN2C(=O)c3ccccc3C12c1ccc(Cl)cc1` (stereo not shown) [Compound 306], the “% Reduction of virus Control” value with RSV A2 [3] was 72%. For the same compound, in the experiment on RSV A2 [4] (setting [6]), the EC50 was less than 0.1 µg/mL.

`COc1ccc(CC(=O)N2CCN3C(=O)c4ccccc4C23c2ccc(C)cc2)cc1` (stereo not shown) [Compound 66] gave a pEC50 in experiment [1] of 5.44 to 5.74. Moreover, the EC50 in the experiment with RSV A2 [4] (setting [6]) lay in the range of 0.1 to 0.25 µg/mL (≈ 0.242 to 0.606 µM).

The record behind these values is patent US8598193B2, “Polycyclic agents for the treatment of respiratory syncytial virus infections” (Biota Scientific Management Pty Ltd., priority 2003, dated 2013).
